# Test results: patent US20250066347A1, “SUBSTITUTED THIAZOLIDINEDIONE DERIVATIVE COMPOUND, AND PHARMACEUTICAL COMPOSITION FOR PREVENTING OR TREATING CANCER, COMPRISING SAME” (MEDIFIC, INC., priority 2021, published 2025)
# Legend:
# [1] = system: SREBP; experiment: Cell-based assay system using a 6xSRE reporter vector (copGFP intensity) in HOG-GSC-6xSRE-copGFP_HIGH cells; parameters: dose or concentration left out as unconfirmed; details: copGFP intensity normalized to DMSO control = 1, 72 hours
# From the text: First, as shown in (a) of FIG. 1, SRE(5′-ATCACCCCAC-3′) 6 copies which are DNA seCuences to which a transcription factor, SREBP active form bonds were inserted into a minimal CMV promoter 5′ front end of a pGreenfire-Lenti-reporter vector to produce a 6xSRE reporter vector. The 6xSRE reporter vector is a vector system in which a minimal CMV promoter is activated only when SREBP in an activated form bonds to 6xSRE and copGFP is expressed, and after the vector was introduced to HOG-GSC which is a brain tumor stem cell, separation into a GFP high cell and a GFP low cell through FACS sorting was performed. Each of SREBP1a and SREBP1c in an active form was overexpressed in separated GFP-low cells (b of FIG. 1), and it was measured therefrom whether the expression amount of GFP was increased. As a result, it was confirmed that the overexpression of SREBP1a and SREBP1c active forms increased GFP expression by 43.30% and 93.49%, in separated GFP-low cells (c of FIG. 1). The separated GFP-high cells were treated with each of fatostatin and FGH10019 known to inhibit activity of DMSO and SREBP which was a control group to measure a change in the expression amount of GFP, and, as a result, it was confirmed that when treated with known materials, fatostatin and FGH10019, the expression of GFP was inhibited by up to 50% (d of FIG. 1).
# HOG-GSC-6xSRE-copGFP_HIGH cells were dispensed into a 96-well plate (Corning) at 5000/well, each well was treated […], and then all wells were photographed every 3 hours for 72 hours in an incubator (ThermoFisher) at […], 5% CO2, using real-time cell imaging equipment (Incucyte) to photograph changes in copGFP intensity.
# [2] = system: HOG-GSC cells; experiment: Comparison of cell viability in brain tumor stem cell (MTS assay); type: cell-based; details: 72 hours, DMSO control = 1, value below 0.5 = viability decreased by 50% or more
# Experimental: HOG-GSC cells which are brain tumor stem cells were treated with 11 compounds at 10 μM and DMSO as a control group, and the number of surviving cells after 72 hours was evaluated by MTS assay.
# HOG-GSC which is a brain tumor stem cell was seeded on a 96-well plate at 5000 cells per well, and was cultured in an incubator (ThermoFisher) at 37° C. and 5% CO2 for 24 hours for stabilization of cells. Thereafter, it was treated with 11 compounds of the present invention at […] each, and treated with the same volume of DMSO as a control group as the volume of each compound. After treatment with the compound of the present invention and the control group, cells were cultured in an incubator at 37° C. and 5% CO2 for 72 hours. Thereafter, since there were many living cells in each well, cell viability was quantified using a cell viability assay kit (LPS solution) of which the color becomes darker with an increase in the number of cells. After treatment with the cell viability assay solution, a reaction was performed in an incubator at 37° C. and 5% CO2 for 3 hours to perform coloration, absorbance at 450 nm was measured using a microplate reader (BioTek), and an absorbance intensity of the control group was set to 1 and the absorbance of cells treated with each compound was normalized and is shown in FIG. 2.
SMILES,activity [1],cell viability inhibition effect (normalized MTS value) [2]
"CC(C)(C)c1ccc(-c2cncc(/C=C3\SC(=O)NC3=O)c2)cc1 [Compound 28, (Z)-5-((5-(4-(tert-butyl)phenyl)pyridin-3-yl)methylene)thiazolidine-2,4-dione]",4.8%,significant cell viability inhibition effect
"CC(C)(C)c1ccc(-n2cccc2/C=C2\SC(=O)NC2=O)cc1 [Compound 3, (Z)-5-((1-(4-(tert-butyl)phenyl)-1H-pyrrol-2-yl)methylene) thiazolidine-2,4-dione]",1%,significant cell viability inhibition effect
"O=C1NC(=O)/C(=C/c2ccnc(-c3ccc(OCc4ccccc4)cc3)c2)S1 [Compound 15, (Z)-5-((2-(4-(benzyloxy)phenyl)pyridin-4-yl)methylene)thiazolidine-2,4-dione]",8.6%,significant cell viability inhibition effect
"O=C1NC(=O)/C(=C/c2ccc(-c3ccc(OC(F)(F)F)cc3)nc2)S1 [Compound 25, (Z)-5-((6-(4-(trifluoromethoxy)phenyl)pyridin-3-yl)methylene) thiazolidine-2,4-dione]",6.3%,significant cell viability inhibition effect
"CC(C)(C)c1cccc(-c2cc(/C=C3\SC(=O)NC3=O)ccn2)c1 [Compound 18, (Z)-5-((2-(3-(tert-butyl)phenyl)pyridin-4-yl)methylene)thiazolidine-2,4-dione]",1.3%,significant cell viability inhibition effect
"Cc1ccc(-c2cc(/C=C3\SC(=O)NC3=O)ccn2)cc1 [Compound 10, (Z)-5-((2-(p-tolyl)pyridin-4-yl)methylene)thiazolidine-2,4-dione]",8.8%,significant cell viability inhibition effect
"O=C1NC(=O)/C(=C/c2ccnc(-c3ccc(C(F)(F)F)cc3)c2)S1 [Compound 12, (Z)-5-((2-(4-(trifluoromethyl)phenyl)pyridin-4-yl)methylene) thiazolidine-2,4-dione]",5.9%,significant cell viability inhibition effect
"Cc1cc(C)cc(-c2cc(/C=C3\SC(=O)NC3=O)ccn2)c1 [Compound 19, (Z)-5-((2-(3,5-Dimethylphenyl)pyridin-4-yl)methylene)thiazolidine-2,4-dione]",1.8%,significant cell viability inhibition effect
"O=C1NC(=O)/C(=C/c2ccnc(-c3ccc(OC(F)(F)F)cc3)c2)S1 [Compound 14, (Z)-5-((2-(4-(trifluoromethoxy)phenyl)pyridin-4-yl)methylene) thiazolidine-2,4-dione]",1.7%,significant cell viability inhibition effect
"CC(C)(C)c1ccc(-c2ccnc(/C=C3\SC(=O)NC3=O)c2)cc1 [Compound 31, (Z)-5-((4-(4-(tert-butyl)phenyl)pyridin-2-yl)methylene)thiazolidine-2,4-dione]",4.5%,significant cell viability inhibition effect
